The values that follow come from article PMC8126241, “Active Components from Cassia abbreviata Prevent HIV-1 Entry by Distinct Mechanisms of Action” (International Journal of Molecular Sciences, 2021).

In series [1] the test system is Herpes simplex virus-1 TK KOS ACV. In words: Broad spectrum antiviral activity, HEL cells. The format is cell-based. As to conditions: Human alphaherpesvirus 1, HEL.
Another series relates to Influenza B B/Ned/537/05. Put plainly: microbe, parasite or virus in culture. The format is cell-based. Conditions: MDCK cells.
A further series concerns Human corona virus. Put plainly: Broad spectrum antiviral activity, HEL cells. It is filed as cell-based.
In a further series the test system is Yellow fever virus. In words: microbe, parasite or virus in culture. The format is cell-based. As to conditions: Vero.
The subject of series [2] is Herpes simplex virus-1 (KOS). Put plainly: Broad spectrum antiviral activity, HEL cells. The format is cell-based.
For the next series, the target named is T1, CCR5 (Homo sapiens, UniProt P51681).
T1 construct: host or cells: U373-CD4-CCR5 cells
T1 sequence (P51681 whole entry): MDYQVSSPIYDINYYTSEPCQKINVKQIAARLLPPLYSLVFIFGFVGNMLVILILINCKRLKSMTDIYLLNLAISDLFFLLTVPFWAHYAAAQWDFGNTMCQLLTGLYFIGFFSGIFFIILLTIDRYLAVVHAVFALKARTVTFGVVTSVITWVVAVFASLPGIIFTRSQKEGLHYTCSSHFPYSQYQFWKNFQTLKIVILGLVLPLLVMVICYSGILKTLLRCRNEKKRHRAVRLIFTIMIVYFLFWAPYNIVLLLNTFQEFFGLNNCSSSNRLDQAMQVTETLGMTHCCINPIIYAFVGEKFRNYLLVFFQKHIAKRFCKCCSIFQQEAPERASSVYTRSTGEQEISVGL
Put plainly: Binding competition with anti-CCR5 antibody 2D7. As to conditions: anti-CCR5 antibody 2D7, U373-CD4-CCR5 cells. On the procedure: Binding competition between increasing concentrations of compounds and FITC-conjugated mouse anti-human CD4 clone RPA-4 (Biolegend, Amsterdam, Netherlands), PE-conjugated mouse anti-Human CXCR4 clone 12G5, and PE-conjugated mouse anti-human CCR5 clone 2D7 (BD Pharma, Aalst, Belgium) to U373-CD4-CXCR4 and U373-CD4-CCR5 cells was first tested by flow cytometry (FACSCanto). […] After 1 h of incubation at 4 °C, cells were washed with FACS buffer (1% bovine serum albumin, 0.1% N3Na in PBS, Sigma), and Mean Fluorescence Intensity (MFI) was measured. […] Internalization was stopped after 30 min by addition of NaN3 (0.1%) on ice. Cells were stained with anti-human CXCR4 clone 4G10 (BD, Belgium) or anti-human CCR5 (CD195) clone T21/8, (eBioscience, Asse, Belgium), Near-IR fluorescent reactive dye during 1 h at 4 °C, washed with FACS buffer, and a secondary PE-conjugated goat anti-mouse antibody (Jackson ImmunoResearch, West Grove, PA, USA).

The test system of a further series is HIV-1 ADA-M. In words: Dual chamber transmission assay, HeLa upper chamber / TZM-bl lower chamber. The format is cell-based. Conditions: dual-chamber system, at IC50 concentration. On the procedure:
Dual chamber transmission assay was performed as previously described. HeLa cells were seeded into an upper chamber of a transwell plate (Sigma-Aldrich, Liège, Belgium), while TZM-bl cells were seeded in the lower chamber. Trans Epithelial Electric Resistance (TEER) was measured using Millicell-ERS Volt-Ohm Meter. HIV-1 ADA-M (200 pg) and drugs were added to the upper chamber after 4 days when TEER reached 150 Ohm/cm^2. 24 h after infection luciferase value of TZM-bl cells lysate was measured using the Luciferase System Kit and the POLARstar Omega Plate Reader. Data were analyzed using GraphPrism. The HIV-1 DC-SIGN transmission assay was performed as previously described.

The next series relates to Hepatitis C virus (Jc1). Put plainly: Broad spectrum antiviral activity, Huh 7-D cells. The format is cell-based.
Series [3] deals with HIV-1 gp120 / CD4 binding. Put plainly: CD4-gp120 interaction assay (ELISA). Conditions: in-house ELISA. On the procedure: Human soluble CD4 (sCD4) was immobilized in a 96-well plate by adding 100 ng sCD4 (R&D Systems, Belgium) in 100 μL PBS per well and incubated at 4 °C. After 24 h, the CD4 coated plate was washed with 1% BSA-PBS and blocked by adding 100μL 5% BSA-PBS per well for 1 h at 4 °C. The coated plate was then washed and incubated with or without drugs for 1 h at 4 °C. After washing, 100 ng HIV-1 gp120 protein (Fitzgerald, Acton, MA, USA) was added into the plate and kept for 1 h at 4 °C. The plate was washed, and anti-HIV-1 gp120 (Aalto Bio Reagents, Dublin, Ireland) (100 ng/100 μL PBS) was added. After 1 h, the plate was washed and anti-sheep HRP (Sigma, Belgium) (100 ng/100 μL PBS) was added. After 1 h incubation at 4 °C, 100 μL o-phenylenediamine dihydrochloride (OPD) (Thermo Fisher, Asse, Belgium) was added and incubated for 20 min in dark. One hundred microliters 0.5M H2SO4 was finally added to stop the reaction. OD492 and OD630 were measured by POLARstart Omega Plate Reader. OD492 − OD630 was calculated.

Series [4] has as its system PBMCs. It is filed as cell-based, human. On the procedure:
To measure apoptosis, PBMCs were incubated with or without drugs in a 96-well round bottom plate at 2 × 10^5/200 μL/well. After 2 days, cells were washed with PBS and stained with 2.5 μL Annexin-V-APC (Biosciences, Aalst, Belgium) in 100 μL staining buffer containing 10 mmol/L HEPES pH7.4, 140 mmol/L NaCl, and 2.5 mmol/L CaCl2 for 20 min at room temperature in dark. Cells were then washed with staining buffer and incubated with 100 μL 0.1 μg/mL propidium iodide (PI) (Thermo Fisher, Asse, Belgium) for 5 min at room temperature in dark. Stained cells were measured by flow cytometry (FACSCanto, BD, Aalst, Belgium).

The subject of series [5] is PBMCs.

Each structure is given as a SMILES string. Where two headings read alike, the source gives them in different places. Some results are limits rather than exact numbers.

For `Oc1cc(O)cc(/C=C/c2ccc(O)c(O)c2)c1` [piceatannol, trans-3,3′,4,5′-tetrahydroxystilbene], the IC50 in series [1] is 45.4 ± 4 µM; in the series on Influenza B B/Ned/537/05, above 100 µM; in the series with Human corona virus, above 100 µM; in the series on Yellow fever virus, above 100 µM; in series [2], 47.5 ± 3.5 µM; in series [2] (Human alphaherpesvirus 1, HEL), around 45 µM. For the same compound, the IC50 with Hepatitis C virus (Jc1) was above 100 µM. At CCR5, the “Inhibition of CCR5 binding” value is recorded as “neither CE nor piceatannol did”. Also, the “Decrease of HIV-1 infection” value in the series on HIV-1 ADA-M is on record as 33%. The “HIV-1 infection of TZM-Bl cells relative to control (100)” value in the series on HIV-1 ADA-M (24 h post-infection) is given as 66.9%. Further, the “Inhibition of gp120/CD4 binding” value in series [3] is listed as “did not”. Also, the “Induction of apoptosis in PBMCs” value in the series with PBMCs [4] is given as “did not induce any apoptosis”. In addition, in the series on PBMCs [5], the “Effect on expression of CD25 and CD69” value is reported as “did not have any effect”.
